# Test results reported in patent publication EP4159720A1, “NONSYMMETRIC SUBSTITUTED 1,1'-BIPHENYL DERIVATIVES AND USES THEREOF” (Recepton Spolka z Ograniczona Odpowiedzialnoscia, priority 2021, dated 2023).
# Structures can show the parent of a compound that is named as a salt.
# Tests used:
# PD-1/PD-L1 interaction = molecular target: T1, PD-1/PD-L1 interaction (Homo sapiens, UniProt Q9NZQ7); assay: PD-1/PD-L1 Blockade Bioassay (Promega J1252; NFAT cellular assay); assay type: cell-based; details: PD-1 Effector Jurkat cells co-cultured with PD-L1 aAPC/CHO-K1 cells for 6 h; NFAT-RE luminescence; three replications
# T1 construct: host or cells: PD-L1 aAPC/CHO-K1 cells; PD-1 Effector Jurkat T cells
# T1 sequence (Q9NZQ7 19-290): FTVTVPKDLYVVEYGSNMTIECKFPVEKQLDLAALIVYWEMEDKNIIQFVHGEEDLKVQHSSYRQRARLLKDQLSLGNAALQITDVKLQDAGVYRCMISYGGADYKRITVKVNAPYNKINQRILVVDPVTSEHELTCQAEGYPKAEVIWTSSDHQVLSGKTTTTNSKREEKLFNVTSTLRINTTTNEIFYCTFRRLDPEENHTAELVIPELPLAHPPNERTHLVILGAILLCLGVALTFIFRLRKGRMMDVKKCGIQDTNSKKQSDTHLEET
# Experimental: The potency of blocking the PD-1/PD-L1 pathway was assessed using the PD-1/PD-L1 Blockade Bioassay (Promega, cat. J1252). This assay relies on two genetically engineered cell lines: PD-1 Effector cells (Jurkat T cells expressing human PD-1 and luciferase driven by NFAT response element) and PD-L1 aAPC/CHO-K1 cells (CHO-K1 cells expressing human PD-L1 and cell surface protein designed to activate cognate T-cell Receptors in an antigen-independent manner). When the two cell types are co-cultured, the PD-1/PD-L1 interaction inhibits TCR signaling and NFAT-RE-mediated luminescence. Addition of either an anti-PD-1 or anti-PD-L1 antibody that blocks the PD-1/PD-L1 interaction releases the inhibitory signal and leads to TCR activation and the NFAT-RE-mediated luminescence, which is then measured on a microplate reader. The assay was performed according to the manufacturer's manual. PD-L1 aAPC/CHO-K1 cells were plated in 96-well, white, flat bottom assay plates at […] cells in 100 µL of medium (Ham's F12, 10% FBS) and incubated overnight at 37°C, 5% CO2. The next day, the medium was removed from the assay plate and serially diluted compounds as listed in table 1 were added at 40 µL per well in the assay buffer (RPMI1640 + 1% FBS + 0,5% DMSO). Next, PD-1 Effector Jurkat cells were resuspended in the assay buffer (RPMI 1640 + 1% FBS) at a concentration of 1,25 × 10^6 cells/mL and added to the assay plate at 40 µL per well (total of […]). The cells were co-cultured for 6 h (37°C, 5% CO2) and then removed from the incubator and equilibrated for 5 min at room temperature. The Bio-GloTM Reagent (Promega, cat. G7941) was prepared according to the manufacturer's instructions and added to each well at 80 µL per well. The results were baseline-corrected to non-treated controls, averaged from three replications and fitted with a 4-parameters variable slope.
# [1] = molecular target: T2, hPD-1 (50 nM) and hPD-L1 (5 nM) protein complex (Homo sapiens, UniProt Q9NZQ7); assay: Homogenous Time Resolved Fluorescence (HTRF) assay, Cisbio kit 64ICP01PEG; assay type: binding; details: activity range from Hill curve fit; 1 h incubation at room temperature; TR-FRET; three independent measurements
# T2 construct: purchased Cisbio 64ICP01PEG
# T2 sequence (Q9NZQ7 19-238 limits assumed, one chain of several): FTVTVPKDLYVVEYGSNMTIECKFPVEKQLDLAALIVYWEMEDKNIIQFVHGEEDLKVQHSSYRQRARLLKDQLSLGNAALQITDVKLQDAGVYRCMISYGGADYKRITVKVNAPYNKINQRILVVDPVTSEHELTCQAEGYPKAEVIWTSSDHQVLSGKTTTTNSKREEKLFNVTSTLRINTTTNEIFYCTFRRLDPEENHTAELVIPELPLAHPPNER
# Experimental: The biological activity of the compounds described in the previous section was tested by the Homogenous Time Resolved Fluorescence (HTRF) method. Determination was carried out with the use of putty from the Cisbio company (catalog number 64ICP01PEG) in the 20 µL format using the protocol from the manufacturer. Compounds in the concentration range allowing determination of biological activity from the inflection curve were added to the hPD-1 (50 nM) and hPD-L1 (5 nM) protein complex with antibodies and allowed to incubate for one hour at room temperature before measuring Forster resonant energy transfer (TR-FRET) on a Tecan Spark 20M instrument. The results were normalized to a positive control (complex without inhibitor) and negative control (no hPD-1), averaged from three independent measurements and fitted with a Hill curve.
# Ranges of activity of the tested compounds: "very good" (+++) below 20 nM, "moderate" (++) - 20-50 nM and "low" (+) - 50 nM - 1 µM.
SMILES,EC50 (PD-1/PD-L1 interaction) [nM],IC50 [1] [nM]
"COc1cc(C(=O)Nc2cccc(-c3cccc(NC(=O)c4cc(OC)c(CN(C)CCO)cn4)c3C)c2C)ncc1CN[C@@H](C)CO [Compound R1_C441, (S)-5-(((2-hydroxyethyl)(methyl)amino)methyl)-N-(3'-(5-(((1-hydroxypropan-2-yl)amino)methyl)-4-methoxypicolinamido)-2,2'-dimethyl-[1,1'-biphenyl]-3-yl)-4-methoxypicolinamide]",176,< 20
"COc1cc(C(=O)Nc2cccc(-c3cccc(NC(=O)c4cc(OC)c(CN[C@@H]5CCC[C@H]5O)cn4)c3C)c2C)ncc1CNC(CO)CO [Compound R1_C445, 5-(((1,3-dihydroxypropan-2-yl)amino)methyl)-N-(3'-(5-((((1R,2R)-2-hydroxycyclopentyl)amino)methyl)-4-methoxypicolinamido)-2,2'-dimethyl-[1,1'-biphenyl]-3-yl)-4-methoxypicolinamide]",150,< 20
"COc1cc(C(=O)Nc2cccc(-c3cccc(NC(=O)c4ccc(CN(C)CCO)cn4)c3C)c2C)ncc1CN(C)CCO [Compound R1_C450, 5-(((2-hydroxyethyl)(methyl)amino)methyl)-N-(3'-(5-(((2-hydroxyethyl)(methyl)amino)methyl)picolinamido)-2,2'-dimethyl-[1,1'-biphenyl]-3-yl)-4-methoxypicolinamide]",206,< 20
"COc1cc(C(=O)Nc2cccc(-c3cccc(NC(=O)c4cc(OC)c(CN[C@@H](C)CO)cn4)c3C)c2C)ncc1CN[C@H]1CCC[C@@H]1O [Compound R1_C428, 5-((((1S,2S)-2-hydroxycyclopentyl)amino)methyl)-N-(3'-(5-((((S)-1-hydroxypropan-2-yl)amino)methyl)-4-methoxypicolinamido)-2,2'-dimethyl-[1,1'-biphenyl]-3-yl)-4-methoxypicolinamide]",44.6,< 20
"COc1cc(C(=O)Nc2cccc(-c3cccc(NC(=O)c4cc(OC)c(CN[C@@H](C)CO)cn4)c3C)c2C)ncc1CNC(CO)CO [Compound R1_C446, (S)-5-(((1,3-dihydroxypropan-2-yl)amino)methyl)-N-(3'-(5-(((1-hydroxypropan-2-yl)amino)methyl)-4-methoxypicolinamido)-2,2'-dimethyl-[1,1'-biphenyl]-3-yl)-4-methoxypicolinamide]",205,< 20
"COc1cc(C(=O)Nc2cccc(-c3cccc(NC(=O)c4ccc(CN(C)CCO)cn4)c3C)c2C)ncc1CN[C@@H]1CCC[C@H]1O [Compound R1_C451, 5-((((1R,2R)-2-hydroxycyclopentyl)amino)methyl)-N-(3'-(5-(((2-hydroxyethyl)(methyl)amino)methyl)picolinamido)-2,2'-dimethyl-[1,1'-biphenyl]-3-yl)-4-methoxypicolinamide]",68,< 20

# Now from value to molecule:
EC50 (PD-1/PD-L1 interaction) [nM],IC50 [1] [nM],SMILES
234,–,"COc1cc(C(=O)Nc2cccc(-c3cccc(NC(=O)c4ccc(CN(C)CCO)cn4)c3C)c2C)ncc1CN[C@@H]1CCC[C@H]1O [Compound R1_C451_1, 5-((((1R,2R)-2-hydroxycyclopentyl)amino)methyl)-N-(3'-(5-(((2-hydroxyethyl)(methyl)amino)methyl)picolinamido)-2,2'-dimethyl-[1,1'-biphenyl]-3-yl)-4-methoxypicolinamide trihydrochloride]"
480,50 to 1000,"COc1cc(C(=O)Nc2cccc(-c3cccc(NC(=O)c4cc(OC)c(CNCCCO)cn4)c3C)c2C)ncc1CNCCO [Compound R1_C454, 5-(((2-hydroxyethyl)amino)methyl)-N-(3'-(5-(((3-hydroxypropyl)amino)methyl)-4-methoxypicolinamido)-2,2'-dimethyl-[1,1'-biphenyl]-3-yl)-4-methoxypicolinamide]"
143,< 20,"COc1cc(C(=O)Nc2cccc(-c3cccc(NC(=O)c4cc(OC)c(CN[C@@H](C)CO)cn4)c3C)c2C)ncc1CNCCCO [Compound R1_C453, (S)-5-(((1-hydroxypropan-2-yl)amino)methyl)-N-(3'-(5-(((3-hydroxypropyl)amino)methyl)-4-methoxypicolinamido)-2,2'-dimethyl-[1,1'-biphenyl]-3-yl)-4-methoxypicolinamide]"
159,< 20,"COc1cc(C(=O)Nc2cccc(-c3cccc(NC(=O)c4ccc(CN(C)CCO)cn4)c3C)c2C)ncc1CN[C@@H](C)CO [Compound R1_C458, (S)-N-(3'-(5-(((2-hydroxyethyl)(methyl)amino)methyl)picolinamido)-2,2'-dimethyl-[1,1'-biphenyl]-3-yl)-5-(((1-hydroxypropan-2-yl)amino)methyl)-4-methoxypicolinamide]"
